pIC50: −log10 of the molar value. Read-outs that look alike come from different tables or passages of the source.
Assays:
[1] = target: CK2 (Homo sapiens, UniProt P68400); test: CK2 inhibition, biochemical chemiluminescence holoenzyme assay (Kinase Glo, IC50 determination)
In short: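 Holoenzyme CK2 assay; compounds pre-incubated with substrate and enzyme, then reacted 150 min at 24-27° C. Remaining ATP measured as luminescence with Kinase Glo, and IC50 derived from the signal.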

[2] = target: CDC7 (Homo sapiens, UniProt O00311); test: CDC7 inhibition, biochemical chemiluminescence assay (Kinase Glo, IC50 determination)
Chain of CDC7 (O00311 whole entry): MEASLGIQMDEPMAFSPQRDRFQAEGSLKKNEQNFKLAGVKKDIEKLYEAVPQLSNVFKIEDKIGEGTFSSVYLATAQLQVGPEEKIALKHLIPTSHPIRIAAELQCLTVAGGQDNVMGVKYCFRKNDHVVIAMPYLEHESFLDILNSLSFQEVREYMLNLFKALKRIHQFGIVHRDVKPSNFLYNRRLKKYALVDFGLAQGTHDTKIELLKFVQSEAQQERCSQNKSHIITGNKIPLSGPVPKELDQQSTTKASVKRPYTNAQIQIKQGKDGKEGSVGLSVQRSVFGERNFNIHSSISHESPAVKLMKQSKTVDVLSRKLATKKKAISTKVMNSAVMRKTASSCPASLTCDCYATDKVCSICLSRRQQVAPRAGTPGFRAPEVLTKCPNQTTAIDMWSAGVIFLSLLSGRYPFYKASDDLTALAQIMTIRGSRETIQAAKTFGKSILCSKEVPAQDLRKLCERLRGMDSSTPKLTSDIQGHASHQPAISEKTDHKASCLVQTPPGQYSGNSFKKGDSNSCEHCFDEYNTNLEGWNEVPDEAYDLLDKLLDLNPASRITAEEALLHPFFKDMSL
Chain of CDC7 (Q9UBU7 whole entry partner): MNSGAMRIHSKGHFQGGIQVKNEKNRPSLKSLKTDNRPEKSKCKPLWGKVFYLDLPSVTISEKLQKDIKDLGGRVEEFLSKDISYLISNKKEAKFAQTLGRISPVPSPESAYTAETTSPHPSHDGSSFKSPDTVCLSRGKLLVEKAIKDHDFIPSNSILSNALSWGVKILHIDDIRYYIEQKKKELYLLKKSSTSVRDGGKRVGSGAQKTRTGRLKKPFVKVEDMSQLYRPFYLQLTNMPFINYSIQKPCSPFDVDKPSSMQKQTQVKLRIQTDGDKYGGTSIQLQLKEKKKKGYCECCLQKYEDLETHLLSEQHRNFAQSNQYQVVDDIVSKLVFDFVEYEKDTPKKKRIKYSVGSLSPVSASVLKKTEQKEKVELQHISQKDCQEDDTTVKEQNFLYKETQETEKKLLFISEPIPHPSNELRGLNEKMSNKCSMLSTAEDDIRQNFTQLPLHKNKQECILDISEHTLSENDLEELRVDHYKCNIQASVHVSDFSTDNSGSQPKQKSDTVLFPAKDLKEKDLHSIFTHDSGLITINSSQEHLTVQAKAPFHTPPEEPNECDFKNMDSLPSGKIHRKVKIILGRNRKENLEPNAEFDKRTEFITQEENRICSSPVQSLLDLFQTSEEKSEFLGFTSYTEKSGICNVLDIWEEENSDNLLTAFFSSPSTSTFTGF
In short: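 CDC7 enzyme preincubated with compound 10 min at ambient temperature, then ATP mix in Tris Base added; reaction 90 min at 24-27 °C. Remaining ATP quantified by Kinase Glo luminescence to give IC50.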

[3] = target: PIM (PIM-1, PIM-2, and/or PIM-3); test: PIM-1, PIM-2 and PIM-3 inhibition, biochemical chemiluminescence assays (Kinase Glo, IC50 determination); conditions: Table 1 activity class; PIM refers to PIM-1, PIM-2, and/or PIM-3; read-out: PIM IC50 (Activity B)
[4] = Table 1 activity class, symbol given only if active, read-out: CK2 IC50 (Activity C)
[5] = Table 1 activity class, symbol given only if active, read-out: CDC7 IC50 (Activity A)
[6] = compounds in Table 1, read-out: CDC7 IC50 value

Chain of CK2 (P68400 whole entry): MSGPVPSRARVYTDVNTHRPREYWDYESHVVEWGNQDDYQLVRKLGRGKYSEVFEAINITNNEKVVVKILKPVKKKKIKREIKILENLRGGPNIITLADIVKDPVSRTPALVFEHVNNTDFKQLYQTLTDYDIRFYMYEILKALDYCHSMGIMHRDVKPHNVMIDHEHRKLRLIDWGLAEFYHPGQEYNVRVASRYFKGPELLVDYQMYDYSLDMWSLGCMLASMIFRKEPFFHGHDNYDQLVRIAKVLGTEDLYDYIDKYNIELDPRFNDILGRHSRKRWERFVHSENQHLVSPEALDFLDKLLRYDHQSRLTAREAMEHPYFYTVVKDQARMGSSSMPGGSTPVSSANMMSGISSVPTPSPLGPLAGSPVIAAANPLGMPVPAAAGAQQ
Chain of CK2 (P67870 whole entry partner): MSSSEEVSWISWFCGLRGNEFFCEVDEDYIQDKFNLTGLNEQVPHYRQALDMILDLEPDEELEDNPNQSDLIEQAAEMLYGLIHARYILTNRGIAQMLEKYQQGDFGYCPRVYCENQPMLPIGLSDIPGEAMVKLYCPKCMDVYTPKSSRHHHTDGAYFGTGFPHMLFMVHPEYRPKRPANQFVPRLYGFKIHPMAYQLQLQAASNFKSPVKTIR

| SMILES | pIC50 [1, 4] | pIC50 [2, 5] | pIC50 [3] | pIC50 [2, 6] | pIC50 [1] | pIC50 ([2]; CDC7 IC50 (Activity A), Table 1 activity class, symbol given only if active) |
| --- | --- | --- | --- | --- | --- | --- |
| CN(C)Cc1ccc(-c2nc3c(oc4ccc(Br)cc43)c(=O)[nH]2)c(Cl)c1 [Compound 381, 8-bromo-2-{2-chloro-4-[(dimethylamino)methyl]phenyl}[1]benzofuro[3,2-d]pyrimidin-4(3H)-one] | > 5.00 | > 5.00 | > 5.00 | – | – | – |
| O=c1[nH]c(-c2ccc(CNCCN3CCCCC3)cc2Cl)nc2c1oc1ccc(Br)cc12 [Compound 385, 8-bromo-2-(2-chloro-4-{[(2-piperidin-1-ylethyl)amino]methyl}phenyl)[1]benzofuro[3,2-d]pyrimidin-4(3H)-one] | > 5.00 | > 5.00 | > 5.00 | – | – | – |
| CC(C)(C)OC(=O)N1CCC(NCc2ccc(-c3nc4c(oc5ccc(Br)cc54)c(=O)[nH]3)c(Cl)c2)CC1 [Compound 386, 1,1-dimethylethyl 4-({[4-(8-bromo-4-oxo-3,4-dihydro[1]benzofuro[3,2-d]pyrimidin-2-yl)-3-chlorophenyl]methyl}amino)piperidine-1-carboxylate] | > 5.00 | > 5.00 | > 5.00 | – | – | – |
| O=C(N[C@@H]1CN(Cc2nc3c(oc4ccc(Br)cc43)c(=O)[nH]2)C[C@H]1O)C1CCNCC1 [Compound 388, N-{(3R,4R)-1-[(8-bromo-4-oxo-3,4-dihydro[1]benzofuro[3,2-d]pyrimidin-2-yl)methyl]-4-hydroxypyrrolidin-3-yl}piperidine-4-carboxamide] | > 5.00 | > 5.00 | > 5.00 | – | – | – |
| Cn1cnc(C(=O)Nc2ccc(-c3nc4c(oc5ccc(Br)cc54)c(=O)[nH]3)c(Cl)c2)c1 [Compound 389, N-[4-(8-bromo-4-oxo-3,4-dihydro[1]benzofuro[3,2-d]pyrimidin-2-yl)-3-chlorophenyl]-1-methyl-1H-imidazole-4-carboxamide] | > 5.00 | > 5.00 | > 5.00 | – | – | – |
| Cn1ccnc1C(=O)Nc1ccc(-c2nc3c(oc4ccc(Br)cc43)c(=O)[nH]2)c(Cl)c1 [Compound 390, N-[4-(8-bromo-4-oxo-3,4-dihydro[1]benzofuro[3,2-d]pyrimidin-2-yl)-3-chlorophenyl]-1-methyl-1H-imidazole-2-carboxamide] | > 5.00 | > 5.00 | > 5.00 | – | – | – |
| Cn1ccc(C(=O)Nc2ccc(-c3nc4c(oc5ccc(Br)cc54)c(=O)[nH]3)c(Cl)c2)n1 [Compound 391] | > 5.00 | > 5.00 | > 5.00 | – | – | – |
| Nc1n[nH]c2ccc(C(=O)Nc3ccc(-c4nc5c(oc6ccc(Br)cc65)c(=O)[nH]4)c(Cl)c3)cc12 [Compound 393, ′3-amino-N-[4-(8-bromo-4-oxo-3,4-dihydro[1]benzofuro[3,2-d]pyrimidin-2-yl)-3-chlorophenyl]-1H-indazole-5-carboxamide] | > 5.00 | > 5.00 | > 5.00 | – | – | – |
| NCCNC(=O)c1ccc(C(=O)Nc2ccc(-c3nc4c(oc5ccc(Br)cc54)c(=O)[nH]3)c(Cl)c2)nc1 [Compound 394, ′N′5′-(2-aminoethyl)-N′2′-[4-(8-bromo-4-oxo-3,4-dihydro[1]benzofuro[3,2-d]pyrimidin-2-yl)-3-chlorophenyl]pyridine-2,5-dicarboxamide] | > 5.00 | > 5.00 | > 5.00 | – | – | – |
| O=C(Nc1ccc(-c2nc3c(oc4ccc(Br)cc43)c(=O)[nH]2)c(Cl)c1)c1cnc2[nH]ccc2c1 [Compound 395, ′N-[4-(8-bromo-4-oxo-3,4-dihydro[1]benzofuro[3,2-d]pyrimidin-2-yl)-3-chlorophenyl]-1H-pyrrolo[2,3-b]pyridine-5-carboxamide] | > 5.00 | > 5.00 | > 5.00 | – | – | – |
| O=c1[nH]c(CN2C3CCC2CC(O)C3)nc2c1oc1ccc(Br)cc12 (stereo not shown) [Compound 398, 8-bromo-2-[(3-hydroxy-8-azabicyclo[3.2.1]oct-8-yl)methyl][1]benzofuro[3,2-d]pyrimidin-4(3H)-one] | – | – | > 5.00 | – | > 5.00 | > 5.00 |
| O=c1[nH]c(CN2CCCC(O)C2)nc2c1oc1ccc(Br)cc12 (stereo not shown) [Compound 400, 8-bromo-2-[(3-hydroxypiperidin-1-yl)methyl][1]benzofuro[3,2-d]pyrimidin-4(3H)-one] | > 5.00 | > 5.00 | > 5.00 | > 7.00 | – | – |
| CN(CCO)Cc1nc2c(oc3ccc(Br)cc32)c(=O)[nH]1 [Compound 401, 8-bromo-2-{[(2-hydroxyethyl)(methyl)amino]methyl}[1]benzofuro[3,2-d]pyrimidin-4(3H)-one] | > 5.00 | > 5.00 | > 5.00 | > 7.00 | – | – |
| O=c1[nH]c(CN2CCC[C@H](O)C2)nc2c1oc1ccc(Br)cc12 [Compound 404, 8-bromo-2-{[(3S)-3-hydroxypiperidin-1-yl]methyl}[1]benzofuro[3,2-d]pyrimidin-4(3H)-one] | > 5.00 | > 5.00 | > 5.00 | > 7.00 | – | – |
| O=c1[nH]c(CN2CC3CCC2C3O)nc2c1oc1ccc(Br)cc12 (stereo not shown) [Compound 412, 8-bromo-2-[(7-hydroxy-2-azabicyclo[2.2.1]hept-2-yl)methyl][1]benzofuro[3,2-d]pyrimidin-4(3H)-one] | > 5.00 | > 5.00 | > 5.00 | > 7.00 | – | – |
| O=c1[nH]c(CN2CC3CCC2[C@H]3O)nc2c1oc1ccc(Br)cc12 (stereo partly drawn) [Compound 413, 8-bromo-2-{[(7S)-7-hydroxy-2-azabicyclo[2.2.1]hept-2-yl]methyl}[1]benzofuro[3,2-d]pyrimidin-4(3H)-one] | > 5.00 | > 5.00 | > 5.00 | > 7.00 | – | – |
| CN1[C@@H]2CC[C@H]1CN(Cc1nc3c(oc4ccc(Br)cc43)c(=O)[nH]1)CC2 [Compound 425, 8-bromo-2-{[(1S,6R)-9-methyl-3,9-diazabicyclo[4.2.1]non-3-yl]methyl}[1]benzofuro[3,2-d]pyrimidin-4(3H)-one] | > 5.00 | > 5.00 | > 5.00 | – | – | – |

More lines, main results first:

| pIC50 [1, 4] | pIC50 [2, 5] | pIC50 [3] | pIC50 [2, 6] | SMILES | pIC50 [1] | pIC50 ([2]; CDC7 IC50 (Activity A), Table 1 activity class, symbol given only if active) |
| --- | --- | --- | --- | --- | --- | --- |
| > 5.00 | > 5.00 | > 5.00 | – | O=C(Nc1ccc(-c2nc3c(oc4ccc(Br)cc43)c(=O)[nH]2)c(Cl)c1)c1csnn1 [Compound 406, N-[4-(8-bromo-4-oxo-3,4-dihydro[1]benzofuro[3,2-d]pyrimidin-2-yl)-3-chlorophenyl]-1,2,3-thiadiazole-4-carboxamide] | – | – |
| > 5.00 | > 5.00 | > 5.00 | > 7.00 | CCC1(O)CCN(Cc2nc3c(oc4ccc(Br)cc43)c(=O)[nH]2)C1 (stereo not shown) [Compound 407, 8-bromo-2-[(3-ethyl-3-hydroxypyrrolidin-1-yl)methyl][1]benzofuro[3,2-d]pyrimidin-4(3H)-one] | – | – |
| > 5.00 | > 5.00 | > 5.00 | > 7.00 | CO[C@@H]1CCN(Cc2nc3c(oc4ccc(Br)cc43)c(=O)[nH]2)C1 [Compound 408, 8-bromo-2-{[(3R)-3-(methyloxy)pyrrolidin-1-yl]methyl}[1]benzofuro[3,2-d]pyrimidin-4(3H)-one] | – | – |
| > 5.00 | > 5.00 | > 5.00 | – | Cc1cc2oc3c(=O)[nH]c(CN4CC[C@H](O)C4)nc3c2cc1Br [Compound 420, 8-bromo-2-{[(3S)-3-hydroxypyrrolidin-1-yl]methyl}-7-methyl[1]benzofuro[3,2-d]pyrimidin-4(3H)-one] | – | – |
| > 5.00 | > 5.00 | > 5.00 | – | CNCc1ccc(-c2nc3c(oc4ccc(Br)cc43)c(=O)[nH]2)c(Cl)c1 [Compound 422, 8-bromo-2-{2-chloro-4-[(methylamino)methyl]phenyl}[1]benzofuro[3,2-d]pyrimidin-4(3H)-one] | – | – |
| > 5.00 | > 5.00 | > 5.00 | > 7.00 | CN1CCCN(Cc2nc3c(oc4ccc(Br)cc43)c(=O)[nH]2)CC1 [Compound 426, 8-bromo-2-[(4-methyl-1,4-diazepan-1-yl)methyl][1]benzofuro[3,2-d]pyrimidin-4(3H)-one] | – | – |
| > 5.00 | > 5.00 | > 5.00 | – | O=c1[nH]c(-c2ccc(CNC3CCCCC3)cc2Cl)nc2c1oc1ccc(Br)cc12 [Compound 427, 8-bromo-2-{2-chloro-4-[(cyclohexylamino)methyl]phenyl}[1]benzofuro[3,2-d]pyrimidin-4(3H)-one] | – | – |
| > 5.00 | > 5.00 | > 5.00 | – | COc1ccc(Br)c2oc3c(=O)[nH]c(CN4CC[C@H](O)C4)nc3c12 [Compound 428, 6-bromo-2-{[(3S)-3-hydroxypyrrolidin-1-yl]methyl}-9-(methyloxy)[1]benzofuro[3,2-d]pyrimidin-4(3H)-one] | – | – |
| > 5.00 | > 5.00 | > 5.00 | > 7.00 | O=c1[nH]c(CN2CC[C@H](O)C2)nc2c1oc1ccc(Cl)cc12 [Compound 429, 8-chloro-2-{[(3S)-3-hydroxypyrrolidin-1-yl]methyl}[1]benzofuro[3,2-d]pyrimidin-4(3H)-one] | – | – |
| > 5.00 | > 5.00 | > 5.00 | – | CC(C)NCc1ccc(-c2nc3c(oc4ccc(Br)cc43)c(=O)[nH]2)c(Cl)c1 [Compound 430, 8-bromo-2-(2-chloro-4-{[(1-methylethyl)amino]methyl}phenyl)[1]benzofuro[3,2-d]pyrimidin-4(3H)-one] | – | – |
| > 5.00 | > 5.00 | > 5.00 | > 7.00 | O=c1[nH]c(CN2CC[C@H](O)C2)nc2c1oc1ccc3cn[nH]c3c12 [Compound 432, 9-{[(3S)-3-hydroxypyrrolidin-1-yl]methyl}-1H-pyrimido[4′,5′:4,5]furo[2,3-g]indazol-7(8H)-one] | – | – |

From patent US20090247559A1 (Exelixis, Inc., priority 2007, published 2009)
